Measured values: ChEMBL document CHEMBL1949588, “Synthesis of [¹¹C]uric acid, using [¹¹C]phosgene, as a possible biomarker in PET imaging for diagnosis of gout” (Bioorg Med Chem Lett, 2012)

Assays:
Blood [1] = assay: Metabolic stability in Sprague-Dawley rat blood assessed as formation of [11C][…] metabolite at 22 to 30 MBq, iv after 30 mins by radiometric HPLC analysis; assay type: ADME, organism-based; conditions: in vivo, 0.5 h
Rattus norvegicus = assay: Ratio of drug uptake in potassium oxonate treated Sprague-Dawley rat hyperuricemic model at 22 to 30 MBq, iv after 60 mins to drug uptake in normal rat; assay type: ADME, organism-based; conditions: in vivo, 1 h
[2] = Drug uptake in potassium oxonate treated Sprague-Dawley rat hyperuricemic model limb at 22 to 30 MBq, iv after 65 to 70 mins by PET analysis; assay type: ADME, organism-based; conditions: in vivo
Blood [3] = assay: Ratio of drug uptake in potassium oxonate treated Sprague-Dawley rat hyperuricemic model blood at 22 to 30 MBq, iv after 65 to 70 mins to drug uptake in normal rat; assay type: ADME, organism-based; conditions: in vivo
Blood [4] = assay: Drug uptake in potassium oxonate treated Sprague-Dawley rat hyperuricemic model blood at 22 to 30 MBq, iv after 60 mins by gamma counting; conditions: in vivo, 1 h
[5] = Metabolic stability in potassium oxonate treated Sprague-Dawley rat hyperuricemic model blood assessed as compound remaining at 22 to 30 MBq, iv after 30 mins by radiometric HPLC analysis; assay type: ADME, organism-based; conditions: read-out: Stability

Stability (Blood [1]): Unstable | Ratio (Rattus norvegicus): 1.7 | Drug uptake [2]: Active | Ratio (Blood [3]): 1.6 | Drug uptake (Blood [4]): 0.57 %ID | remaining at 0.5 h [5]: 100%
SMILES: O=c1[nH]c(=O)c2[nH][11c](=O)[nH]c2[nH]1
